Patent US20110034472A1, “Novel Compounds for Treatment of Cancer and Disorders Associated With Angiogenesis Function” (UNIVERSITY OF SOUTHERN CALIFORNIA, priority 2004, published 2011)
Like-named read-outs stand apart in the source and are kept apart here.

What was measured:
[1] = test system: PC3 prostate cancer cells; test: MTT cytotoxicity assay, PC3; type: cell-based; conditions: Homo sapiens
Experimental: (§1) The sensitivity of a panel of seven human cancer cell lines to SC144 was assessed by MTT-assay. […] The sensitivity towards SC144 was time- and dose-dependent.
(§2) Cytotoxicity was assessed by a 3-(4,5-dimethylthiazol-2-yl)-2,5-diphenyltetrazolium bromide assay as previously described (Carmichael et al. (1987) Cancer Res. 47:936-42). Briefly, cells were seeded in 96-well microtiter plates (PC3 and DU145 at 5,000 cells/well and LNCaP at 10,000 cells/well; breast and ovarian cells at 4,000 cells/well) and allowed to attach. Cells were subsequently treated with a continuous exposure to the corresponding drug for 72 hours. A 3-(4,5-dimethylthiazol-2-yl)-2,5-diphenyltetrazolium bromide solution (at a final concentration of 0.5 mg/mL) was added to each well and cells were incubated for 4 hours at 37° C. After removal of the medium, DMSO was added and the absorbance was read at 570 nm. All assays were done in triplicate. The IC50 was then determined for each drug from a plot of log(drug concentration) versus percentage of cell kill.

[2] = test system: DU145 prostate cancer cells; test: MTT cytotoxicity assay, DU145; type: cell-based; conditions: Homo sapiens; for IC50: DU-145, 72 hours continuous exposure, read-out: IC50 values (mean ± SD)
Experimental: as §1, §2

HEY ovarian cancer cells = test: MTT cytotoxicity assay, HEY; type: cell-based, human; conditions: Homo sapiens, HEY; for IC50: 72 hours continuous exposure, read-out: IC50 values (mean ± SD)
In short: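 Cells seeded at 5,000/well (PC3) or 4,000/well (breast, ovarian lines) and exposed continuously to drug for 72 h. MTT (0.5 mg/mL final) added for 4 h at 37 °C, absorbance read at 570 nm; IC50 taken from log concentration versus percent cell kill, in triplicate.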

[3] = test system: MCF-7 breast cancer cells; test: MTT cytotoxicity assay, MCF-7; type: cell-based, human; conditions: for IC50: MCF7, 72 hours continuous exposure, read-out: IC50 values (mean ± SD); for CC50: MTT-assay, read-out: CC50 values (mean ± SD)
Experimental: as §1, §2

[4] = test system: MDA-MB-435 breast cancer cells; test: MTT cytotoxicity assay, MDA-MB-435; type: cell-based, human; conditions: Homo sapiens
In short: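 Breast cells were seeded at 4,000 cells/well, allowed to attach, then exposed continuously to drug for 72 h. MTT at 0.5 mg/mL final was added for 4 h at 37 °C, formazan dissolved in DMSO and absorbance read at 570 nm, in triplicate. IC50 came from log(concentration) versus percent cell kill.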

[5] = test system: MDA-MB-468 breast cancer cells; test: MTT cytotoxicity assay, MDA-MB-468; type: cell-based; conditions: Homo sapiens; for IC50: 72 hours continuous exposure, read-out: IC50 values (mean ± SD)
Experimental: as §1, §2

[6] = test system: LNCaP prostate cancer cells; test: MTT cytotoxicity assay, LNCaP; type: cell-based; conditions: Homo sapiens
Experimental: as §2
Cytotoxicity was assessed by a 3-(4,5-dimethylthiazol-2-yl)-2,5-diphenyltetrazolium bromide (MTT) assay as previously described.^9 Briefly, cells were seeded in 96-well microtiter plates and allowed to attach. Cells were subsequently treated with continuous exposure to the corresponding drug for 72 h. An MTT solution (at a final concentration of 0.5 mg/mL) was added to each well, and cells were incubated for 4 h at 37° C. After removal of the medium, DMSO was added and the absorbance was read at 570 nm. All assays were done in triplicate. The IC50 was then determined for each drug from a plot of log (drug concentration) versus percentage of cells killed.

CEM or HEY cells = test: Cytotoxicity of salicylhydrazides (Table 5); type: cell-based; conditions: Homo sapiens
Source text: Human prostate cancer cells (PC3, p53 null, AR−; DU145, p53 mutant, AR−; and LNCaP, p53 wild-type, AR+) and breast cancer cells (MCF-7, overexpressed wild-type p53, ER+; MDA-MB-468, p53 mutant, […]; and MDA-MB-435, p53 mutant, ER−) were obtained from American Type Cell Culture (Manassas, Va.). The human ovarian carcinoma cell line (HEY) naturally resistant to cisplatin (CDDP) was kindly provided by Dr. Dubeau (University of Southern California Norris Cancer Center; Buick et al. (1985) Cancer Res. 45:3668-76 and Hamaguchi et al. (1993) Cancer Res. 53:5225-32). The results with CEM cells were previously described (Neamati et al. (1998) J. Med. Chem. 41:3202-9). Cells were maintained as monolayer cultures in RPMI 1640 supplemented with 10% fetal bovine serum (Gemini-Bioproducts, Woodland, Calif.) and 2 mmol/L L-glutamine at 37° C. in a humidified atmosphere of 5% CO2. To remove the adherent cells from the flask for passaging and counting, cells were washed with PBS without calcium or magnesium, incubated with a small volume of 0.25% trypsin-EDTA solution (Sigma-Aldrich, St. Louis, Mo.) for 5 to 10 minutes, and washed with culture medium and centrifuged. All experiments were done using cells in exponential cell growth.
as §2

DU145 cells = test: Cell cycle analysis (propidium iodide), SC21, DU145; type: cell-based, human; conditions: 72 hours of exposure, IC50
Experimental: FIG. 17 depicts flow cytometric analysis of the cell cycle profiles of DU145, PC3, MDA-MB-435, and HEY cells treated with SC21. […] SC21 induced a G0/G1 phase arrest in DU145 and MDA-MB-435 cells and S phase arrest in PC3 and HEY cells.
Cell cycle perturbations induced by SC21 and camptothecin (CPT) were analyzed by propidium iodide DNA staining. Briefly, exponentially growing PC3 and DU145 cells were treated with different doses of the drug for 24, 48, and 72 hours. At the end of each treatment time, cells were collected and washed with PBS after a gentle centrifugation at 200×g for 5 minutes. Cells were thoroughly resuspended in 0.5 mL of PBS and fixed in 70% ethanol for at least 2 hours at 4° C. Ethanol-suspended cells were then centrifuged at 200×g for 5 minutes and washed twice in PBS to remove residual ethanol. For cell cycle analysis, the pellets were suspended in 1 mL of PBS containing 0.02 mg/mL of propidiumiodide, 0.5 mg/mL of DNase-free RNase A and 0.1% of Triton X-100 and incubated at 37° C. for 30 minutes. Cell cycle profiles were obtained using a FACScan flowcytometer (Becton Dickinson, San Jose, Calif.) and data were analyzed by ModFit LT software (Verity Software House, Inc., Topsham, Me.). […]

MDA-MB-435 cells = test: MTT assay, continuous drug exposure for 48 hours (Table 3); type: cell-based, human; conditions: for IC80: MDA-MB-435, read-out: CC80
[7] = test system: SKOV3 ovarian cancer cells; test: Sensitivity of various cancer cells to SC144, SKOV3; type: cell-based; conditions: Homo sapiens, SK-OV-3
Source text: (§3) The studies were expanded to other cell lines. […] Subnanomolar to low nanomolar potency was also observed in HCT-116 and HT29 colon cancer cell lines (Table 2).

HT29 colon cancer cells = test: Sensitivity of various cancer cells to SC144, HT29; type: cell-based; conditions: Homo sapiens, HT-29
Source text: as §3

[8] = PC-3, PC3 cells, read-out: IC50 value
[9] = PC3, 72 hours continuous exposure, read-out: IC50 values (mean ± SD)
[10] = 72 hours continuous exposure, read-out: IC50 values (mean ± SD)
[11] = MTT-assay, read-out: CC50 values (mean ± SD)

| SMILES | IC50 [1, 8] [nM] | IC50 [1, 9] [nM] | IC50 [2] [nM] | IC50 (HEY ovarian cancer cells) [nM] | IC50 ([3]; Homo sapiens, MCF-7) [nM] | IC50 [4, 10] [nM] | IC50 [5] [nM] | IC50 [6, 10] [nM] | IC50 (CEM or HEY cells) [nM] | IC80 (MDA-MB-435 cells; Homo sapiens) [µM] | further results |
| --- | --- | --- | --- | --- | --- | --- | --- | --- | --- | --- | --- |
| O=C(NNC(=O)c1ccccc1O)C1=CC2C=CC=CC2C=C1O (stereo not shown) [SC21] | 3200 ± 200 | 3250 | 120 ± 50 | 400 ± 60 | 40 ± 7 | 35 ± 7 | 200 ± 2 | 200 ± 70 | 400 ± 60 |  | cells retained in G0/G1 phase (DU145 cells): 65% |
| O=C(NNC(O)c1cc2ccccc2cc1O)c1cc2ccccc2cc1O (stereo not shown) [SC23] | 2000 ± 500 | 2000 | 50 ± 19 | 2350 | 280 ± 35 | 240 ± 28 | 50 ± 14 | 850 ± 200 | 2300 ± 200 | 0.1 ± 0.01 | CC50 (MDA-MB-435 cells): 40 ± 7 nM |
| O=C(NNc1nc2cc(F)ccc2n2cccc12)c1cnccn1 [SC144, Pyrazine-2-carboxylic acid N′-(7-fluoro-pyrrolo[1,2-a]quinoxalin-4-yl)-hydrazide] |  |  |  |  |  |  |  |  |  | 10 ± 0.01 | CC50 ([1]; PC3, MTT-assay, read-out: CC50 values (mean ± SD)): 10 ± 0.2 µM; CC50 ([2]; DU-145, MTT-assay, read-out: CC50 values (mean ± SD)): 3000 ± 300 nM; CC50 (HEY ovarian cancer cells; [11]): 1000 ± 60 nM; CC50 ([3]; Homo sapiens, MCF7, MCF-7): 1700 ± 300 nM; CC50 ([3]; MCF-7): 2000 ± 300 nM; IC50 ([4]; MTT, 72 h, read-out: IC50): 4000 ± 100 nM; CC50 [4, 11]: 4 ± 1.4 µM; CC50 [5, 11]: 700 ± 100 nM; IC50 ([6]; hLNCaP, MTT, 72 h, read-out: IC50): 400 ± 60 nM; CC50 [7]: 120 nM; CC50 (HT29 colon cancer cells): 78 nM; CC50 (MDA-MB-435 cells; Homo sapiens, MDA-MB-435): 4000 ± 1400 nM |
